Columns and labels:
LPS-induced septic mice [1] = assay: LPS-induced sepsis mouse model, survival; type: in vivo; conditions: LPS group 0%
Procedure: For LPS‐induced sepsis model experiments, 25 male C57BL/6J mice, 6–8 weeks old, weighing 20–25 g, were randomly divided into five groups (n = 5 in each group), and survival was examined. The abdominal cavity was injected with 40 mg kg^−1 LPS to induce sepsis. 30 min later, mice in group 1 were injected subcutaneously with 0.9% NaCl, mice in groups 2–4 were injected subcutaneously with CV122 (20 mg kg^−1), CV122 (30 mg kg^−1), and CV122 (40 mg kg^−1), respectively, and mice in group 5 were injected subcutaneously with Suramin (40 mg kg^−1). The status of the mice was observed and recorded every day.

RAW264.7 macrophages = assay: Cell surface glycocalyx of LPS-stimulated RAW264.7 macrophages (WGA-FITC, atomic force microscopy); type: cell-based, mouse
Procedure: (§1) Lungs were harvested from LPS‐induced and CLP‐induced sepsis model mice, and frozen sections were prepared. HUVECs and RAW264.7 macrophages were incubated with CV122 for 3 h, and TNF‐α (20 ng mL^−1) and LPS (5 µg mL^−1) were used to stimulate cells for 1 h. Lung tissue, HUVECs, and RAW264.7 macrophages were fixed with 4% paraformaldehyde for 10 min before permeabilization with 0.5% Triton X‐100 for 10 min. The membrane was sealed with 4% skimmed milk powder and incubated at room temperature for 50 min. Primary antibodies were rabbit anti‐heparanase polyclonal antibodies overnight at 4 °C. The diluent of the secondary antibody FITC‐WGA‐lectin was kept at room temperature and protected from light for 1 h. Nuclei were stained with DAPI. After 120 s, images were acquired with a confocal microscope (LSM 800, Zeiss, Germany).
HUVECs and RAW264.7 cells in the logarithmic growth phase were digested, centrifuged, and then plated in a six‐well plate at a density of 1 × 10[5] cells per well. CV122 was incubated for 3 h, and cells were stimulated with LPS (5 µg mL^−1) and TNF‐α (20 ng mL^−1) for 5 h. Cell‐covered slides were carefully removed and placed on the stage of the atomic force microscope with needle parameters: elastic coefficient 0.4 N M^−1, sensitivity 65.63 nm V^−1, with otherwise the usual atomic force microscope (Bruker, Billerica, MA) parameters used.

HPA [2] = assay: HPA levels in LPS-stimulated RAW264.7 macrophages (immunofluorescence, western blotting); type: cell-based, mouse; conditions: CV122 50 µM 3 h, then LPS 5 µg mL−1 1 h
Procedure: as §1
CV122 (50 µM) was incubated with HUVECs and RAW264.7 cells for 3 h, and LPS (5 µg mL^−1) and TNF‐α (20 ng mL^−1) were incubated for 1 h. Total protein was extracted with RIPA tissue/cell lysate solution. Lung tissues were collected and homogenized in cold RIPA buffer to obtain proteins. The BCA method was used to quantify protein. After full denaturing, proteins were separated by 10% SDS‐PAGE and transferred to PVDF membrane. […] Blots were developed with a chemiluminescent HRP substrate, and the protein bands were detected with a chemiluminescence imager (MiniChemi610).

ICAM-1 and VCAM-1 = ICAM-1 and VCAM-1 on LPS-stimulated RAW264.7 macrophages by flow cytometry; type: cell-based, mouse; conditions: CV122 50 µM 3 h, LPS 5 µg mL−1 1 h
Procedure: (§2) Each group of mice was euthanized 24 h after LPS injection, spleens were harvested, red blood cells were lysed to detect splenocyte apoptosis, and the ratio of CD3^+CD4^+ T cells, CD3^+CD8^+ T cells, CD3^−CD19^+ B cells in spleen cells and lymph nodes quantified. Antibodies were: FITC‐Annexin V and PI; APC‐CD3, FITC‐CD4, PE‐CD8a, and PE‐CD19. Each group of mice was euthanized 12 h after LPS injection, Lung, kidney, and spleens were harvested, red blood cells were lysed to detect the ratio of macrophages in multiple organs, Antibodies were: FITC anti‐mouse F4/80; APC anti‐mouse CD86. Flow cytometry was used to quantify the adhesion molecules ICAM‐1 and VCAM‐1 on the surface of RAW264.7 cells and HUVECs. CV122 (50 µM) was incubated with the cells for 3 h, LPS (5 µg mL^−1) and TNF‐α (20 ng mL^−1) were used to stimulate the cells for 1 h, and the cells were collected. FITC anti‐mouse CD54 antibody and AF647 anti‐mouse CD106 antibody were incubated for 30 min at room temperature in the dark, PBS was added at 1000 rpm, and the cells were centrifuged for 7 min. A 200‐mesh copper mesh was used to filter the cells into a flow cytometer, and a flow cytometer (BD Biosciences) was used for detection.

HPA [3] = assay: HPA expression in tissues of LPS-induced septic mice (IHC, immunofluorescence, immunoblotting); type: in vivo, mouse; conditions: 24 h after LPS injection
Procedure: as §1
The lung, kidney, and liver tissues of mice were fixed in paraformaldehyde. Sections underwent endogenous peroxidase quenching and antigen retrieval followed by incubation with primary antibodies or isotype‐matched controls. […]
CV122 (50 µM) was incubated with HUVECs and RAW264.7 cells for 3 h, and LPS (5 µg mL^−1) and TNF‐α (20 ng mL^−1) were incubated for 1 h. […] The BCA method was used to quantify protein. […] Blots were developed with a chemiluminescent HRP substrate, and the protein bands were detected with a chemiluminescence imager (MiniChemi610).

lung tissue glycocalyx = assay: Cell surface glycocalyx in lung tissue of LPS-induced septic mice (WGA-FITC, lanthanum nitrate TEM); type: in vivo, mouse
Procedure: as §1
The endothelial glycocalyx was detected by electron microscopy. Mice were dissected and a needle was inserted into the left ventricle of the heart and perfused with lanthanum aldehyde, a solution consisting of 2% glutaraldehyde, 2% sucrose, 0.1 M sodium […] buffer (pH 7.3), and 2% lanthanum nitrate. Lanthanum was a trivalent cation that binds polysaccharide‐protein complexes with negatively charged glycoprotein parts.^[ [46] ^] The organs were cut into 1 mm^3 pieces and then the samples were fixed in lanthanide aldehyde fixative. […]

LPS-induced septic mice [4] = conditions: mouse, in vivo
CLP-induced septic mice = conditions: mouse, in vivo
[5] = test system: splenocytes and lymph node cells; assay: Flow cytometry of splenocyte apoptosis and T/B cells in LPS-induced septic mice; type: in vivo, mouse; conditions: 24 h after LPS
Procedure: as §2

COC1OC(COS(=O)(=O)O)C(OC2OC(C(=O)O)C(OC3OC(COS(=O)(=O)O)C(OC4OC(C(=O)O)C(OC5OC(COS(=O)(=O)O)C(O)C(O)C5NS(=O)(=O)O)C(OS(=O)(=O)O)C4O)C(OS(=O)(=O)O)C3NS(=O)(=O)O)C(O)C2OS(=O)(=O)O)C(O)C1NS(=O)(=O)O (centres unmarked) [CV122]
survival rate (LPS-induced septic mice [1]; 20 mg kg−1 s.c. 30 min after LPS 40 mg kg−1 i.p.): 60% | survival rate (LPS-induced septic mice [1]; 40 mg kg−1 s.c. 30 min after LPS 40 mg kg−1 i.p., 80 h or longer observation): 100% | glycocalyx by WGA-FITC fluorescence (RAW264.7 macrophages): significantly protected the glycocalyx of macrophages | glycocalyx structure by atomic force microscopy (RAW264.7 macrophages): protected against disruption of the glycocalyx structure | HPA levels in macrophages (HPA [2]): significantly inhibited HPA levels following LPS stimulation of macrophages | ICAM-1 and VCAM-1 expression (ICAM-1 and VCAM-1): reversed after CV122 treatment | HPA overexpression in the lungs (HPA [3]): significantly reduced the HPA overexpression | cell surface glycocalyx in lung tissue by WGA-FITC (lung tissue glycocalyx): integrity of the glycocalyx was rescued | lanthanum nitrate staining of lung vascular endothelial glycocalyx (TEM) (lung tissue glycocalyx): significantly restored lanthanum nitrate staining | AST, ALT, BUN in serum and MPO in lung tissue (LPS-induced septic mice [4]): returned to normal upon CV122 treatment, which was more effective than Suramin | kidney damage (H&E) (LPS-induced septic mice [4]): resolved by CV122 | liver damage (H&E) (LPS-induced septic mice [4]): significantly improved by CV122 | lung inflammation by micro-CT imaging (LPS-induced septic mice [4]): almost completely inhibit this progress | lung pathological damage (H&E) (LPS-induced septic mice [4]): significantly improved by CV122 administration | lung weight/body weight ratio (LPS-induced septic mice [4]): significantly decreased | lung wet–dry weight ratio (LPS-induced septic mice [4]): extremely significantly decreased | spleen pathological changes (H&E) (LPS-induced septic mice [4]): no pathological changes were observed in spleen tissue | HPA levels in the lungs (CLP-induced septic mice): significantly reduced the HPA levels in the lungs | TNF-α, IL-6 and IL-1β in serum and lungs (CLP-induced septic mice): reduced the level | body weight course (CLP-induced septic mice): gradually normalized the septic mice | cell surface glycocalyx in lungs (WGA) (CLP-induced septic mice): protected cell surface glycocalyx | lung pathological damage (HE) (CLP-induced septic mice): significantly rescued | survival rate (CLP-induced septic mice; sc): 80% | CD3+CD4+ T cells and CD3+CD8+ T cells in spleen [5]: recovered by CV122 to close to control levels | CD3−CD19+ B cells in spleen and inguinal lymph nodes [5]: recovered upon treatment with CV122 | splenocyte apoptosis (FITC-Annexin V and PI) [5]: significantly reduced apoptosis

— publication PMC11304236, “A Novel Drug Candidate for Sepsis Targeting Heparanase by Inhibiting Cytokine Storm” (Advanced Science, 2024)
